{"source": "paper PMC12756723", "about": "“Derivatives of the Cashew Nut Shell Liquid as Ligands of Pseudomonas aeruginosa Phenazine Protein D (PaPhzD)” (ACS Omega, 2025)", "key": {"PaPhzD": {"molecular_target": "T1, PaPhzD (Pseudomonas aeruginosa, UniProt P0DPB9)", "T1 construct": "inferred from Ni-NTA purification with imidazole elution; made in house; host or cells: E. coli BL21(DE3)", "T1 sequence (P0DPB9 whole entry)": "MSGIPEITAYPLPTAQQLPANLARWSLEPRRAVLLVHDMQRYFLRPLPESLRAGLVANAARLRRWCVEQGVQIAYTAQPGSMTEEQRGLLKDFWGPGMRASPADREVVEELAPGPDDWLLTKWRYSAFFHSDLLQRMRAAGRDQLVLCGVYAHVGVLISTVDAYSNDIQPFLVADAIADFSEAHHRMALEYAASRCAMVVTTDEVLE", "test": "Thermal shift assay (TSA) with SYPRO Orange", "type": "binding", "protocol": "Thermal shift assays were performed on an Applied Biosystems 7500 RT-PCR (Applied Biosystems, Foster City, CA USA). All experiments were carried out in triplicate with 1 °C per minute increments in temperatures that range from 25 to 85 °C in 96-well PCR plates (PCR plates 96-well, BioRad), sealed with transparent capping strips (Flatcap strips, BioRad). The fluorescence of SYPRO Orange (Invitrogen S6650) was monitored (excitation wavelength, 492 nm; emission wavelength, 610 nm). Before the compounds’ screening, protein and DMSO concentrations were evaluated to improve PaPhzD stability throughout the assay.\nThe protein concentration required for an optimal signal-to-noise ratio (>5-fold) was evaluated by analysis of the raw fluorescence curves at different PaPhzD concentrations (1–5 μM). Then, the effect of DMSO (0–10%) over PaPhzD T m was evaluated at the optimal protein concentration. Fluorescence raw data were recorded using Applied Biosystems 7500 Software v2.0 and then processed with NAMI software to calculate T m values by the first-derivative method.\nLDT compounds were screened at a final concentration of 50 μM. Briefly, 1 μL of each compound (1 mM DMSO stock solution) was added to a mixed solution containing 5 μM PaPhzD diluted in 50 mM Tris–HCl buffer (pH 8.0) containing 100 mM NaCl, 1 mM DTT, and SYPRO Orange dye (Invitrogen S6650) (1:100 dilution). Each compound was assayed in triplicate, and ΔT m values were calculated by comparison to reference wells that had 1 μL DMSO instead of the LDT compounds. Differences between T m values (ΔT m) were considered statistically significant when p < 0.01, according to the one-way ANOVA followed by Dunnett’s post-test for multiple comparisons, available in GraphPad Prism 9.0 software (GraphPad Software, San Diego, CA, USA, www.graphpad.com).\nCompounds with ΔT m values statistically different from the reference were also assayed at different concentrations (ranging from 6.25 to 100 μM) to evaluate the concentration–response behavior. The ΔT m versus concentration plots were generated using the nonlinear regression method available in GraphPad Prism version 9.0."}, "PaPhzD-FITC": {"molecular_target": "T2, PaPhzD-FITC (Pseudomonas aeruginosa, UniProt P0DPB9)", "T2 construct": "inferred from Ni-NTA purification with imidazole elution; made in house; host or cells: E. coli BL21(DE3)", "T2 sequence (P0DPB9 whole entry)": "as above", "test": "Fluorescence binding assay with FITC-labeled PaPhzD", "settings": "0.32 μM FITC-labeled PaPhzD, 25 °C, 3-parameter fit; read-out: Kd", "protocol": "PaPhzD (2.1 mg/mL) was incubated with 6 mg/mL fluorescein isothiocyanate (FITC) (Sigma-Aldrich 46950) (1:1) for 2 h at 25 °C. Next, the reaction mixture was eluted on a Hi-Trap HP desalting column (GE Healthcare) with 2 CV of 50 mM HEPES buffer (pH 8.0). The collected fractions were quantified at two different wavelengths (280 and 495 nm), and the molar ratio (Abs495/Abs280) ranging from 0.3 to 1.0 was employed for K d calculation experiments.\nSubsequently, the fluorescence intensity of 0.32 μM of FITC-labeled PaPhzD was measured on a real-time thermocycler (Applied Biosystems 7500) equipped with the filter FAN (excitation wavelength: 498 nm; emission wavelength: 530 nm) for 10 min in the presence of different concentrations of each LDT compound (ranging 0.7–100 μM), previously diluted in DMSO.\nThe fluorescence raw data were recorded using Applied Biosystems 7500 Software v2.0, then exported to GraphPad Prism version 9.0 software to build fluorescence intensity × concentration plots and calculate K d values of the ligands by the nonlinear regression method (3-parameter fit). All experiments were carried out in triplicate using a 96-well PCR plate, manually sealed with transparent capping strips (Flatcap strips, BioRadVR)."}, "[1]": {"system": "P. aeruginosa cells (ATCC 27853)", "test": "Bacterial growth (OD600) in the PYO screening culture", "type": "cell-based, Pseudomonas aeruginosa", "settings": "100 μM", "protocol": "The potential inhibitors, previously solubilized in DMSO, were added to the culture medium after the inoculation (final concentration = 100 μM). The control group was cultured in the presence of an equivalent volume of DMSO but without the presence of potential inhibitors. The cell suspension was maintained at 30 °C under constant agitation (180 rpm) for 24 h in a 24-well plate. After this period, the OD600 was measured to evaluate bacterial growth, and in parallel, after being subjected to centrifugation, the supernatant was read in a 96-well plate at a wavelength of 691 nm. The sterile medium used for culturing the microorganism was used as a positive control, and culture medium containing 1% DMSO was used as a negative control."}, "P. aeruginosa PA14": {"system": "P. aeruginosa PA14", "test": "Swarming assay", "type": "cell-based, Pseudomonas aeruginosa", "settings": "100 μM", "protocol": "Swarming assays were performed as described, using 6-well plates. Briefly, 3 μL of culture (OD600 = 3.0) was inoculated in the center of modified M9 (20 mM NH4Cl; 12 mM Na2HPO4; 22 mM KH2PO4; 8.6 mM NaCl; 1 mM MgSO4; 1 mM CaCl2 2 H2O; 11 mM glucose; 0.5% casamino acids (Difco)) with 0.5% of Bacto-agar (Difco), containing the respective compounds (100 μM final concentration, diluted in DMSO). Plates were incubated inside plastic bags to avoid evaporation at 30 °C for 16 h. After this period, pictures were taken, and the area covered by the colonies was measured using ImageJ. All assays were performed with four replicates, and 0.1% DMSO (v/v) was employed as a negative control."}, "P. aeruginosa": {"system": "P. aeruginosa", "test": "Colony morphology in medium containing compounds", "type": "cell-based, Pseudomonas aeruginosa", "settings": "data not shown"}, "phzA2-G2": {"system": "phzA2-G2", "test": "lacZ transcriptional fusion, phzA2-G2 operon", "type": "cell-based, Pseudomonas aeruginosa", "settings": "late exponential phase", "protocol": "P. aeruginosa harbors two identically structured operons in its genome, which encode most of the enzymes responsible for PYO synthesis (phzA1-G1 and phzA2-G2) but have slightly different regulatory regions 1. lacZ transcriptional fusions for each operon were assayed at mid-log and late exponential phases (OD=1 and 3, respectively). At mid-log cultures, the expression of both QS-regulated operons is extremely low, and it increases more than 1000-fold at late exponential phase for phzA1-G1 and 4-fold for phzA2-G2, as expected. Addition of compounds 2 and 4 had no effect for both operons in the late […]\nsynthesis is not related to inhibition at the transcriptional level.\nFigure 7S: Effect of LDT10 (2) and LDT13 (3) on the phzA1-G1 (A) and phzA2-G2 […]\n(1 picture or pasted object on this page, not shown here)"}, "human PPAR isoforms": {"system": "human PPAR isoforms", "design": "method as in Sahin et al. 2022 (likely, number not given)", "settings": "previously investigated; ref Sahin et al. 2022 (likely, number not given); cited from earlier work"}, "KinA/SPOOF": {"system": "KinA/SPOOF", "design": "method as in Kanojia et al.", "settings": "KinA/SPOOF from B. subtilis; ref Kanojia et al.; cited from earlier work"}}, "note": "“Also recorded” adds a separate entry of the source.", "data": [{"smiles": "CCCCCCCCCCCCCCCc1cccc(O)c1", "note": "[Compound 2]", "values": [{"measurement": "ΔTm of PaPhzD", "setting": "PaPhzD; 50 μM compound, 5 μM PaPhzD, vs DMSO reference", "value": "−3.8", "unit": "°C"}, {"measurement": "Concentration–response behavior of ΔTm", "setting": "PaPhzD; 6.25 to 100 μM", "value": "clear concentration–response behavior"}, {"measurement": "Kd", "setting": "PaPhzD-FITC", "value": 2800, "unit": "nM"}, {"measurement": "Effect on bacterial growth", "setting": "[1]", "value": "without affecting bacterial growth; also recorded: no significant effect on bacterial growth"}, {"measurement": "Swarming motility, % compared to control conditions", "setting": "P. aeruginosa PA14", "value": 65, "unit": "%"}, {"measurement": "Swarming motility, Cohen's d vs control", "setting": "P. aeruginosa PA14", "value": "−0.91"}, {"measurement": "Effect on colony morphology", "setting": "P. aeruginosa", "value": "No effects on colony morphology"}, {"measurement": "Effect on phzA2-G2 transcription", "setting": "phzA2-G2", "value": "no effect"}, {"measurement": "PPAR activity profile", "setting": "human PPAR isoforms", "value": "do not activate PPAR receptors"}, {"measurement": "IC50", "setting": "KinA/SPOOF", "value": "> 500000", "unit": "nM"}]}]}
